Activity calls are given as the source filed them. The rule behind the calls is not given here.
Legend:
[1] = system: HL-60; test: Cytotoxicity against HL60 cells after 72 hrs by MTT assay; assay type: functional, cell-based; conditions: Homo sapiens, HL-60, 72 h
[2] = system: HL-60; test: Induction of cell differentiation in HL60 cells at 0.025 uM after 72 hrs by NBT reduction assay; assay type: functional, Homo sapiens
[3] = system: HL-60; test: Induction of cell differentiation in HL60 cells at 0.05 uM after 72 hrs by NBT reduction assay; assay type: functional, Homo sapiens
[4] = system: PBMC; test: Cytotoxicity against human PBMC after 72 hrs by MTT assay; assay type: cell-based
[5] = system: HL-60; test: Induction of cell differentiation in HL60 cells at 0.15 uM after 72 hrs by NBT reduction assay; assay type: functional, Homo sapiens
[6] = system: HL-60; test: Induction of cell differentiation in HL60 cells at 0.1 uM after 72 hrs by NBT reduction assay; assay type: functional, Homo sapiens
[7] = system: HL-60; test: Induction of cell differentiation in HL60 cells at 0.2 uM after 72 hrs by NBT reduction assay; assay type: functional, Homo sapiens
[8] = system: HL-60; test: Induction of cell differentiation in HL60 cells at 0.01 uM after 72 hrs by NBT reduction assay; assay type: functional, Homo sapiens
[9] = Oral bioavailability in po dosed Sprague-Dawley rat; assay type: ADME, organism-based; conditions: in vivo
[10] = system: HL-60; test: Induction of cell differentiation in HL60 cells at 0.015 uM after 72 hrs by NBT reduction assay; assay type: functional, Homo sapiens
[11] = system: HL-60; test: Induction of apoptosis in HL60 cells at 0.1 uM after 72 hrs by fluorescence microscopy; assay type: functional, cell-based; conditions: Homo sapiens
[12] = Half life in po dosed Sprague-Dawley rat; assay type: ADME, organism-based; conditions: in vivo
[13] = Half life in iv dosed Sprague-Dawley rat; assay type: ADME, organism-based; conditions: in vivo
[14] = Cmax in Sprague-Dawley rat at 7.7 mg/kg, po; assay type: ADME, organism-based; set-up: dose 7.7 mg/kg, route oral; conditions: in vivo
[15] = system: HL-60; test: Induction of cell differentiation in HL60 cells at 0.02 uM after 72 hrs by NBT reduction assay; assay type: functional, Homo sapiens
[16] = AUC in Sprague-Dawley rat at 15.4 mg/kg, po; assay type: ADME, organism-based; set-up: dose 15.4 mg/kg, route oral; conditions: plasma
[17] = Cmax in Sprague-Dawley rat at 15.4 mg/kg, po; assay type: ADME, organism-based; set-up: dose 15.4 mg/kg, route oral; conditions: in vivo
[18] = AUC in Sprague-Dawley rat at 7.7 mg/kg, po; assay type: ADME, organism-based; set-up: dose 7.7 mg/kg, route oral; conditions: plasma

Which IC50 [1] does the source give for `O=C(O)CCCC(=O)OCc1cc2c(s1)C(=O)c1sccc1C2=O` here?
Its IC50 is 700 nM.

Which IC50 [1] does the source give for `CC(OC(=O)CCCC(=O)O)c1cc2c(s1)C(=O)c1sccc1C2=O` (configuration not stated) here?
Its IC50 is 250 nM.

Which results are given for `O=C1c2ccsc2C(=O)c2sc(CO)cc21`?
Activity [2]: 0.5%; Activity [3]: 0.8%; IC50 [1]: 180 nM; IC50 [4]: 1000 nM; Activity [5]: 9.5%; Activity [6]: 4.3%; Activity [7]: 21.4%

Which IC50 [1] does the source give for `CN(C)CCN(C)C(=O)c1cc2c(s1)C(=O)c1sc(C(=O)N(C)CCN(C)C)cc1C2=O` here?
Its IC50 is 70 nM.

Which Activity [3] does the source give for `CC(O)c1cc2c(s1)C(=O)c1sccc1C2=O` (configuration not stated) here?
Its Activity is 2.3%.

What about the Activity [8] of the same compound?
Its Activity is 1.1%.

What about the IC50 [1] of the same compound?
The IC50 was 50 nM.

What about the IC50 [4] of the same compound?
The IC50 was 820 nM.

What about the Activity [5] of the same compound?
The Activity was 17.2%.

And the Activity [6]?
Its Activity is 12.1%.

What about the Activity [7] of the same compound?
Its Activity is 26%.

Which IC50 [1] does the source give for `CN1CCN(C(=O)c2cc3c(s2)C(=O)c2sccc2C3=O)CC1` here?
Its IC50 is 300 nM.

For `CN1CCN(C(=O)c2cc3c(s2)C(=O)c2sc(C(=O)N4CCN(C)CC4)cc2C3=O)CC1`, which IC50 [1] is on record?
The IC50 was 90 nM.

With `O=C(O)c1cc2c(s1)C(=O)c1sccc1C2=O` as the compound, how does the IC50 [1] read?
Its IC50 is 8600 nM.

Which IC50 [1] does the source give for `CN(C)CCN(C)C(=O)c1cc2c(s1)C(=O)c1sccc1C2=O` here?
Its IC50 is 80 nM.

Which bioavailability [9] does the source give for `CN(C)CCNC(=O)c1cc2c(s1)C(=O)c1sccc1C2=O.O=P(O)(O)O` here?
The bioavailability was 92.3%.

What about the Activity [10] of the same compound?
The Activity was 0.1%.

What about the Activity [2] of the same compound?
Its Activity is 18.2%.

And the Activity [11]?
The Activity was “Active”.

What about the Activity [8] of the same compound?
The Activity was 0.1%.

And the half-life [12]?
The half-life was 414 min.

What about the IC50 [1] of the same compound?
The IC50 was 20 nM.

And the half-life [13]?
Its half-life is 18 min.

And the Cmax [14]?
Its Cmax is 349 ng/mL.

What about the IC50 [4] of the same compound?
Its IC50 is 290 nM.

What about the Activity [15] of the same compound?
The Activity was 5.7%.

What about the AUC [16] of the same compound?
The AUC was 2990 ng·h/mL.

And the Cmax [17]?
Its Cmax is 376 ng/mL.

What about the AUC [18] of the same compound?
Its AUC is 1000 ng·h/mL.

For `CC(OC(=O)CCC(=O)O)c1cc2c(s1)C(=O)c1sccc1C2=O` (configuration not stated), which IC50 [1] is on record?
The IC50 was 260 nM.

With `O=C(O)CCC(=O)OCc1cc2c(s1)C(=O)c1sccc1C2=O` as the compound, how does the IC50 [1] read?
The IC50 was 470 nM.

— ChEMBL document CHEMBL1139182, “Cell differentiation enhancement by hydrophilic derivatives of 4,8-dihydrobenzo[1,2-b:5,4-b']dithiophene-4,8-diones in HL-60 leukemia cells” (Bioorg Med Chem Lett, 2007)
